# According to BindingDB's records for patent US20240189315 (Boehringer Ingelheim International, 2024):
# Target: Cyclic GMP-AMP synthase (Homo sapiens, UniProt Q8N884)
# Test: in vitro human biochemical cGAS inhibition
# Sequence of Cyclic GMP-AMP synthase (Q8N884 whole entry): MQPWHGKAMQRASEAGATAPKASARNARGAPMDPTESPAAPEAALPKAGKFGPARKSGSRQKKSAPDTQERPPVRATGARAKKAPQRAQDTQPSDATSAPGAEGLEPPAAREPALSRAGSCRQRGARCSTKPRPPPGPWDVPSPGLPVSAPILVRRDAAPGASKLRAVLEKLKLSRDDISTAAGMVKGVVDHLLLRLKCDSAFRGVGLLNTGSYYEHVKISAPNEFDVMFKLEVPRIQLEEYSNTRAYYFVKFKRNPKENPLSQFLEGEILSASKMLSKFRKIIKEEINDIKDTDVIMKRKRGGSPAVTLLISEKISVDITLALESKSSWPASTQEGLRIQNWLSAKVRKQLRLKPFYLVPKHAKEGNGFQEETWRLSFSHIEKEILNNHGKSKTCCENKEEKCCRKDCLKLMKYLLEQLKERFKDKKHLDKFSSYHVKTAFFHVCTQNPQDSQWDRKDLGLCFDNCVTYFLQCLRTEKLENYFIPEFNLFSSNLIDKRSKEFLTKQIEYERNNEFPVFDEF
row,SMILES,IC50
1,"COC(=O)[C@@H]1C[C@H](Oc2ncccc2N2CCOC3(COC3)[C@@H]2C)CN1c1nc(C(F)F)nc2c1oc1ccccc12 [US20240189315, Example P01 of PCT/EP2022/062480) (Prodrug of Ex. 4.04 of PCT/EP-2022/062480)]",> 9.96 µM
2,"COC(=O)[C@@H]1C[C@H](Oc2ncc(-c3cccnc3OC)cc2N2CCOC3(COC3)[C@@H]2C)CN1c1nc(C(F)(F)F)nc2c1oc1ccccc12 [US20240189315, Example P04 of PCT/EP2022/062480) (Prodrug of Ex. 3.14 of PCT/EP2022/062480)]",> 9.95 µM

# More lines, now with the values ahead:
row,IC50,SMILES
1,> 9.95 µM,"COC(=O)[C@@H]1C[C@H](Oc2ncc(Cl)cc2[C@@]2(F)CCS(=O)(=O)C[C@@H]2C)CN1c1nc(C(F)F)nc2c1oc1ccccc12 [US12043625, Example P02 (prodrug of Ex. 1.13)]"
2,0.027 µM,"C[C@H]1CN2CC[C@]1(F)c1cc(Cl)cnc1O[C@H]1C[C@@H](C(=O)O)N(C1)c1nc(nc3c1oc1ccccc13)CCCCOC2=O [US20240189315, Example 35]"
3,> 9.95 µM,"COC(=O)[C@@H]1C[C@H](Oc2ncc(Br)cc2N2CCOC3(COC3)[C@@H]2C)CN1c1nc(C(F)(F)F)nc2c1oc1ccccc12 [US20240189315, Example P02 of PCT/EP2022/062480) (Prodrug of Ex. 1.10 of PCT/EP2022/062480)]"
